pKd: −log10 of the molar value.

Test [1] is described as follows: Binding affinity of compound to the stromelysin-1 catalytic domain at pH 6.7, 22 degree C.
Test [2] is described as follows: Binding affinity of compound to the stromelysin-1 catalytic domain at pH 6.0, 22 degree C.

`CC(C)[C@@H](NS(=O)(=O)c1ccc(-c2ccc(Br)cc2)cc1)C(=O)O` showed a pKd in test [1] of 6.17.

As for `CC(C)[C@H](NS(=O)(=O)c1ccc(-c2ccc(Br)cc2)cc1)C(=O)O`, the pKd is 8.17 in test [2] and 7.12 in test [1].

The record behind these values is ChEMBL document CHEMBL1132795, “Stereoselective binding of an enantiomeric pair of stromelysin-1 inhibitors caused by conformational entropy factors” (Bioorg Med Chem Lett, 2000).
